Assay [1] has as its target ML1 rabbit melatonin receptor. The assay can be described thus: Melatonergic binding: ML1 rabbit melatonin receptor binding (2-[125I]-iodomelatonin, rabbit parietal cortex). The settings on record: 37° C., 1 hour, read-out: In-Vitro Receptor Binding Activities ML1 (IC50). The arrangement: species or system rabbit (Male New Zealand white). The procedure:
(§1) The melatonergic binding of the compounds of Formula I was determined by the method of Reppert, S. M., et al., as described in Neuron, Vol. 13, 1177-1185 (1994) and Proc. Nat. Acad. Sci. USA, 92, 8734-8738 (1995) and also as described by Stankov, B., et al., "Characterization and mapping of melatonin receptors in the brain of three mammalian species: Rabbit, horse and sheep," in Neuroendocrinology, 53, 214-221 (1991). The assays were incubated at 37° C. for 1 hour, and the reaction was terminated by filtration through a Brandel cell harvester. The filters were washed 3 times with wash buffer. […] The reagents, membranes, and techniques used in the melatonergic binding assays are more fully described below:
(§2) (a) 50 mM Tris buffer containing 12.5 mM MgCl2 and 2 mM EDTA (pH 7.4 at 37° C.).
(§3) (b) Wash buffer: 20 mM Tris base containing 2 mM MgCl2 (pH 7.4 at room temperature).
(§4) (c) 6-Chloromelatonin (10^-5 M final concn.).
(§5) (d) 2-[^125 I]-Iodomelatonin. Source: New England Nuclear
Male New Zealand white rabbits (Hazelton Research) are decapitated, the brains are rapidly removed and chilled. The parietal cortex is crudely dissected and the tissue frozen on dry ice at -80° C. until assayed. Tissue is weighed and thawed in 20 mls of ice-cold Tris buffer (a) and then homogenized by treatment with a polytron for 10 seconds at setting 17. Ice cold Tris (a) is added to a volume of 40 ml. The homogenate is centrifuged in a Sorvall-SS-34 head at 19,000 rpm (44,000× g) for 20 min at 4° C. The resulting supernatant is decanted and discarded. The pellet is re-homogenized in an additional 20 ml of Tris buffer, diluted and centrifuged as before. The supernatant is decanted and discarded. The resulting pellet is homogenized in 20 volumes of Tris buffer per gram of original tissue (a 1:20 homogenate), chilled, and held on ice until assayed.

Assay [2] addresses T1, ML1a human melatonin receptor (Homo sapiens, UniProt P48039).
T1 construct: expressed in transfected cells; host or cells: COS-1 cells
The assay can be described thus: Melatonergic binding: ML1a human melatonin receptor binding (2-[125I]-iodomelatonin, COS-1 cell membranes). The settings on record: human ML1a in COS-1 cells; 37° C., 1 hour; read-out: In-Vitro Receptor Binding Activities ML1a (IC50). The procedure: as §1, §2, §3, §4, §5
The cDNA (human ML1a) was introduced into COS-1 cells by the DEAE-dextran method. Three days later, the media was removed, the plates washed with phosphate buffered saline, the cells removed using Hank's balanced salt solution and pelleted. The supernatant was discarded and the pellets frozen. For preparing membrane homogenates, the pellets are thawed on ice, and resuspended in TME buffer [Tris base, MgCl2, EDTA (pH 7.4 at 37° C.], supplemented with aprotinin, leupeptin and phenylmethyl-sulfonylfluoride. The cells were then homogenized using a dounce homogenizer and centrifuged. The resulting pellet was resuspended with a dounce homogenizer in TME and frozen. On the day of assay, a small aliquot was thawed on ice and resuspended in TME buffer (1:1000).

Bounds are passed on as bounds.

T1 sequence (P48039 whole entry): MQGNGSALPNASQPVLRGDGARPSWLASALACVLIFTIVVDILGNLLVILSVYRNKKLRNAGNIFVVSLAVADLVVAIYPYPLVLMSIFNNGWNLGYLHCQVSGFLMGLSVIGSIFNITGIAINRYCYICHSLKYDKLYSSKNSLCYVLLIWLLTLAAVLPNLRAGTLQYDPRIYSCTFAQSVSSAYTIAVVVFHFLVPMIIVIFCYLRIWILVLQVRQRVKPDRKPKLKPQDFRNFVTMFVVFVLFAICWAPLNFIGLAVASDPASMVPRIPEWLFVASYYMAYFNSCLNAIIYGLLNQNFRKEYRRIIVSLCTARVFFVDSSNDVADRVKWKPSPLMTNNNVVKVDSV

On to `CCCC(=O)Nc1cccc(-c2cccc(OC)c2)c1` [Example 1, N-(3'-Methoxy-[1,1'-biphenyl]-3-yl)butanamide], for which the IC50 in assay [1] was under 10 nM; in assay [2], under 100 nM.
The corresponding values for `COc1cccc(-c2cccc(NC(=O)C(C)C)c2)c1` [Example 2, N-(3'-Methoxy-[1,1'-biphenyl]-3-yl)2-methylpropanamide] are over 50 nM and under 100 nM.
In the case of `COc1cccc(-c2cccc(NC(=O)C3CC3)c2)c1` [Example 3, N-(3'-Methoxy-[1,1'-biphenyl]-3-yl)cyclopropanecarboxamide], the IC50 in assay [2] is under 100 nM.
`CCC(=O)Nc1cccc(-c2cccc(OC)c2)c1` [Example 4, N-(3'-Methoxy-[1,1 '-biphenyl]-3-yl)propanamide]: in assay [2], the IC50 is under 100 nM.
For the compound `COCC(=O)Nc1cccc(-c2cccc(OC)c2)c1` [Example 5, N-(3'-Methoxy-[1,1'-biphenyl]-3-yl)-2-methoxyacetamide], in assay [2], the IC50 is over 300 nM.
As to `CCNC(=O)Nc1cccc(-c2cccc(OC)c2)c1` [Example 6, N-Ethyl N'-(3'-methoxy-[1,1'-biphenyl]-3-yl)urea], the IC50 in assay [1] is over 50 nM; in assay [2], over 300 nM.
For `CCCC(=O)NCc1ccccc1-c1cccc(OC)c1` [Example 7, N-[(3'-Methoxy[1,1'-biphenyl]-2-yl)methyl]butanamide], the 50% inhibitory concentration (IC50) in assay [1] lay in the range of 10 to 50 nM; in assay [2], 100 to 300 nM.
Consider `COc1cccc(-c2ccccc2CNC(=O)C(C)C)c1` [Example 8, N-[(3'-Methoxy[1,1'-biphenyl]-2-yl)methyl]-2-methylpropanamide], for which the IC50 in assay [1] was under 10 nM; in assay [2], 100 to 300 nM.
Take `CCNC(=O)NCc1ccccc1-c1cccc(OC)c1` [Example 9, N-Ethyl N'-[(3'-methoxy[1,1'-biphenyl]-2-yl)methyl]urea]: the values for the half-inhibitory concentration (IC50) in assay [1] and in assay [2] were under 10 nM and 100 to 300 nM, respectively.
The corresponding values for `CCCC(=O)NCc1cccc(-c2cccc(OC)c2)c1` [Example 10, N-[(3'-methoxy-[1,1'-biphenyl]-3-yl)methyl]butanamide] are 10 to 50 nM and over 300 nM.
The matching figures for `COc1cccc(-c2cccc(CNC(=O)C(C)C)c2)c1` [Example 11, N-[(3'-methoxy-[1,1'-biphenyl]-3-yl)methyl]-2-methylpropanamide]: under 10 nM and 100 to 300 nM.
Turning to `CCNC(=O)NCc1cccc(-c2cccc(OC)c2)c1` [Example 12, N-Ethyl N'-[(3'-methoxy-[1,1'-biphenyl]-3-yl)methyl]urea], the results for the IC50 in assay [1] and in assay [2] were 10 to 50 nM and over 300 nM, respectively.
